Series [1] can be described thus: pKa of the amino group (conjugated acid) of the amino compound used in the slurry. The conditions noted are these: water.
Series [2] in a line: physchem.

From the text: Such value of the pKa can be measured by the potentiometric titration method. In the present specification, the pKa of the amino group is “pKa of conjugated acid of the amino group”.

`N[C@H]1C(O)O[C@H](CO)[C@@H](O)[C@@H]1O` (stereo partly shown) [glucosamine] came in with a pKa in series [1] of 7.6.

The compound `CCCCNCCO` [2-(butylamino)ethanol] yielded a pKa in series [1] of 10.

With `CCNC[C@H](O)[C@@H](O)[C@H](O)[C@H](O)CO` [N-ethyl glucamine, N-ethylglucamine], in series [1], the pKa stood at 9.5.

Take `CNC[C@H](O)[C@@H](O)[C@H](O)[C@H](O)CO` [N-methyl glucamine, N-methylglucamine]: the pKa in series [2] was determined as […].

The pKa is the pH at which an ionisable group is half protonated.

These data come from patent publication US9437446B2, “Slurry for chemical mechanical polishing and chemical mechanical polishing method” (KURARAY CO., LTD., priority 2012, dated 2016).
